{"source": "patent EP0013144A1", "about": "“Substituted diphenylamine derivatives, compositions and herbicidal uses thereof, and processes for their preparation” (ICI AUSTRALIA LIMITED, priority 1978, dated 1980)", "format_in_all_cases": "in vivo", "key": {"Setaria aviceps": {"test_system": "Setaria aviceps", "test": "Selective herbicidal activity, seed boxes (Example 34)", "settings": "weed; 0.15 kg/ha; sprayed on one week old seedlings; 29 days after spraying; triplicate", "text": "(§1) The seeds of the test species were sprinkled onto . the surface of soil in seed boxes and covered with a thin layer of sand. The boxes were lightly watered with an overhead spray and placed in a glasshouse for one week to permit germination of the seeds and plant growth to a height of 4 to 5 inches. […] For comparison purposes at least one box containing one week old seedlings was sprayed lightly with water only. After spraying the boxes were returned to the glasshouse for a further 29 days after which the effect of the treatment was visually assessed."}, "Annual Rye Grass": {"test_system": "Annual Rye Grass", "test": "Selective herbicidal activity, seed boxes (Example 34)", "settings": "weed; 0.15 kg/ha; sprayed on one week old seedlings; 29 days after spraying; triplicate", "text": "as §1"}, "Soyabean": {"test_system": "Soyabean", "test": "Selective herbicidal activity, seed boxes (Example 34)", "settings": "crop; 1.5 kg/ha; sprayed on one week old seedlings; 29 days after spraying; triplicate", "text": "as §1"}, "Sorghum halepense [1]": {"test_system": "Sorghum halepense", "test": "Selective herbicidal activity, seed boxes (Example 34)", "settings": "weed; 0.15 kg/ha; sprayed on one week old seedlings; 29 days after spraying; triplicate", "text": "as §1"}, "Japanese millet [2]": {"test_system": "Japanese millet", "test": "Selective herbicidal activity, seed boxes (Example 34)", "settings": "weed; 0.15 kg/ha; sprayed on one week old seedlings; 29 days after spraying; triplicate", "text": "as §1"}, "Cotton": {"test_system": "Cotton", "test": "Selective herbicidal activity, seed boxes (Example 34)", "settings": "crop; 1.5 kg/ha; sprayed on one week old seedlings; 29 days after spraying; triplicate", "text": "as §1"}, "Wild Oats [3]": {"test_system": "Wild Oats", "test": "Selective herbicidal activity, seed boxes (Example 34)", "settings": "weed; 0.15 kg/ha; sprayed on one week old seedlings; 29 days after spraying; triplicate", "text": "as §1"}, "Digitaria sanguinalis": {"test_system": "Digitaria sanguinalis", "test": "Selective herbicidal activity, young pot plants (Example 35)", "settings": "weed; post-emergence; 0.08 kg/ha; after 20 days; mean of triplicate", "procedure": "(§2) The compounds were formulated for test by mixing an appropriate amount with 5 ml of an emulsion prepared by diluting 160 ml of a solution containing 21.8 g per litre of \"Span\" 80 and 78.2 g per litre of \"Tween\" 20 in methylcyclohexanone to 500 ml with water. \"Span\" 80 is a Trade Mark for a surface-active agent comprising sorbitan monolaurate. \"Tween\" 20 is a Trade Mark for a surface-active agent comprising a condensate of sorbitan monolaurate with 20 molar proportions of ethylene oxide. Each 5 ml emulsion containing a test compound was then diluted to 40 ml with water and sprayed on to young pot plants (post-emergence test) of the species named in Table 7 below. Damage to test plants was assessed after 20 days on a scale of 0 to 9 whereo 0 is 0 to 10% and 9 is 90 to 100% kill. The tests were carried out in triplicate and the mean results are recorded in Table 7 below."}, "Setaria viridis": {"test_system": "Setaria viridis", "test": "Selective herbicidal activity, young pot plants (Example 35)", "settings": "weed; post-emergence; 0.08 kg/ha; after 20 days; mean of triplicate", "procedure": "as §2"}, "Sorghum halepense [4]": {"test_system": "Sorghum halepense", "test": "Selective herbicidal activity, young pot plants (Example 35)", "settings": "weed; post-emergence; 0.08 kg/ha; after 20 days; mean of triplicate", "procedure": "as §2"}, "Echinochloa crus-galli": {"test_system": "Echinochloa crus-galli", "test": "Selective herbicidal activity, young pot plants (Example 35)", "settings": "weed; post-emergence; 0.08 kg/ha; after 20 days; mean of triplicate", "procedure": "as §2"}, "Cotton (Deltapine)": {"test_system": "Cotton (Deltapine)", "test": "Selective herbicidal activity, young pot plants (Example 35)", "settings": "crop; post-emergence; 0.08 kg/ha; after 20 days; mean of triplicate", "procedure": "as §2"}, "Soyabean (Amsoy)": {"test_system": "Soyabean (Amsoy)", "test": "Selective herbicidal activity, young pot plants (Example 35)", "settings": "crop; post-emergence; 0.08 kg/ha; after 20 days; mean of triplicate", "procedure": "as §2"}, "Ryegrass [5]": {"test_system": "Ryegrass", "test": "Post-emergence herbicidal activity (Example 32)", "settings": "3 weeks after spraying", "summary_of_the_method": "(§3)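 Compounds applied as diluted emulsifiable concentrates (toluene with nonylphenol ethoxylate/calcium dodecylbenzene sulfonate) or ball-milled aqueous suspensions, sprayed onto glasshouse plants about 10–12.5 cm tall. Damage assessed visually 3 weeks later versus untreated controls on a 0–3 scale (0 = 0–25% damage, 3 = 75–99% kill, 3+ = 100% kill).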"}, "Japanese millet [6]": {"test_system": "Japanese millet", "test": "Post-emergence herbicidal activity (Example 32)", "settings": "3 weeks after spraying", "summary_of_the_method": "as §3"}, "Ipomea [7]": {"test_system": "Ipomea", "test": "Post-emergence herbicidal activity (Example 32)", "settings": "3 weeks after spraying", "summary_of_the_method": "as §3"}, "Wild Oats [8]": {"test_system": "Wild Oats", "test": "Post-emergence herbicidal activity (Example 32)", "settings": "3 weeks after spraying", "summary_of_the_method": "as §3"}, "Ryegrass [9]": {"test_system": "Ryegrass", "test": "Pre-emergence herbicidal activity (Example 31)", "design": "key: 0-3 scale: 0 = 0-25% damage, 3 = 75-99% kill, 3+ = 100% kill", "settings": "after three weeks", "summary_of_the_method": "(§4)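 Ratings run from 0 (0–25% damage) to 3 (75–99% kill), with 3+ meaning complete kill, assessed visually three weeks after spraying. Treatment was applied to soil right after sowing, before germination was triggered by overhead watering in the glasshouse.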"}, "Wheat [10]": {"test_system": "Wheat", "test": "Pre-emergence herbicidal activity (Example 31)", "design": "key: 0-3 scale: 0 = 0-25% damage, 3 = 75-99% kill, 3+ = 100% kill", "settings": "1 kg/ha, after three weeks", "summary_of_the_method": "as §4"}, "Mustard": {"test_system": "Mustard", "test": "Pre-emergence herbicidal activity (Example 31)", "settings": "after three weeks", "summary_of_the_method": "as §4"}, "Japanese millet [11]": {"test_system": "Japanese millet", "test": "Pre-emergence herbicidal activity (Example 31)", "settings": "after three weeks", "summary_of_the_method": "as §4"}, "Sunflower": {"test_system": "Sunflower", "test": "Pre-emergence herbicidal activity (Example 31)", "settings": "after three weeks", "summary_of_the_method": "as §4"}, "Ipomea [12]": {"test_system": "Ipomea", "test": "Pre-emergence herbicidal activity (Example 31)", "settings": "after three weeks", "summary_of_the_method": "as §4"}, "Wild Oats [13]": {"test_system": "Wild Oats", "test": "Pre-emergence herbicidal activity (Example 31)", "settings": "after three weeks", "summary_of_the_method": "as §4"}, "Wheat [14]": {"test_system": "Wheat", "test": "Post-emergence herbicidal activity (Example 32)", "design": "key: 0-3 scale: 0 = 0-25% damage, 3 = 75-99% kill, 3+ = 100% kill", "settings": "3 weeks after spraying", "summary_of_the_method": "as §3"}}}
{"smiles": "CC(Oc1ccc(Nc2ccc(C(F)(F)F)cc2[N+](=O)[O-])cc1)C(=O)[O-].[Na+]", "note": "(stereo not drawn) [Compound 65, 2-[4-(2-Nitro-4-trifluoromethylanilino)phenoxy]-propionic acid sodium salt]", "values": [{"measurement": "percentage damage, St", "setting": "Setaria aviceps", "value": 50, "unit": "percentage"}, {"measurement": "percentage damage, Rg", "setting": "Annual Rye Grass", "value": 35, "unit": "percentage"}, {"measurement": "percentage damage, Sb", "setting": "Soyabean", "value": 0, "unit": "percentage"}, {"measurement": "percentage damage, Sh", "setting": "Sorghum halepense [1]", "value": 80, "unit": "percentage"}, {"measurement": "percentage damage, Jm", "setting": "Japanese millet [2]", "value": 100, "unit": "percentage"}, {"measurement": "percentage damage, Ct", "setting": "Cotton", "value": 0, "unit": "percentage"}, {"measurement": "percentage damage, Ot", "setting": "Wild Oats [3]", "value": 58, "unit": "percentage"}, {"measurement": "damage to test plants, Dg", "setting": "Digitaria sanguinalis", "value": 3}, {"measurement": "damage to test plants, St", "setting": "Setaria viridis", "value": 2}, {"measurement": "damage to test plants, Sh", "setting": "Sorghum halepense [4]", "value": 8}, {"measurement": "damage to test plants, Ec", "setting": "Echinochloa crus-galli", "value": "9 (9 is 90 to 100% kill)"}, {"measurement": "damage to test plants, Ct", "setting": "Cotton (Deltapine)", "value": "0 (0 is 0 to 10%)"}, {"measurement": "damage to test plants, Sy", "setting": "Soyabean (Amsoy)", "value": "0 (0 is 0 to 10%)"}]}
{"smiles": "COC(=O)C(C)Oc1ccc(Nc2ccc(C(F)(F)F)cc2[N+](=O)[O-])cc1", "note": "(stereo not drawn) [Compound 21, Methyl 2-[4-(2-nitro-4-trifluoromethylanilino)phenoxy]-propionate]", "values": [{"measurement": "damage to plants, Rg", "setting": "Ryegrass [5]; 1 kg/ha", "value": "3+ (3+ represents 100% kill)"}, {"measurement": "damage to plants, Rg", "setting": "Ryegrass [5]; 5 kg/ha", "value": "3+ (3+ represents 100% kill)"}, {"measurement": "damage to plants, Jm", "setting": "Japanese millet [6]; 1 kg/ha", "value": "3+ (3+ represents 100% kill)"}, {"measurement": "damage to plants, Jm", "setting": "Japanese millet [6]; 5 kg/ha", "value": "3+ (3+ represents 100% kill)"}, {"measurement": "damage to plants, Ip", "setting": "Ipomea [7]; 1 kg/ha", "value": "0 (0 represents 0 to 25% damage)"}, {"measurement": "damage to plants, Ip", "setting": "Ipomea [7]; 5 kg/ha", "value": 2}, {"measurement": "damage to plants, Ot", "setting": "Wild Oats [8]; 1 kg/ha", "value": "3 (3 represents 75 to 99% kill)"}, {"measurement": "damage to plants, Ot", "setting": "Wild Oats [8]; 5 kg/ha", "value": "3+ (3+ represents 100% kill)"}, {"measurement": "damage to plants, Rg", "setting": "Ryegrass [9]; 0.5 kg/ha", "value": "3+ (3+ represents 100% kill)"}, {"measurement": "damage to plants, Rg", "setting": "Ryegrass [9]; 1 kg/ha", "value": "3+ (3+ represents 100% kill)"}, {"measurement": "damage to plants, Rg", "setting": "Ryegrass [9]; 5 kg/ha", "value": "3+ (3+ represents 100% kill)"}, {"measurement": "damage to plants, Wh", "setting": "Wheat [10]", "value": 2}, {"measurement": "damage to plants, Ms", "setting": "Mustard; 0.5 kg/ha", "value": "0 (0 represents from 0 to 25% damage)"}, {"measurement": "damage to plants, Ms", "setting": "Mustard; 1 kg/ha", "value": "0 (0 represents from 0 to 25% damage)"}, {"measurement": "damage to plants, Ms", "setting": "Mustard; 5 kg/ha", "value": "0 (0 represents from 0 to 25% damage)"}, {"measurement": "damage to plants, Jm", "setting": "Japanese millet [11]; 0.5 kg/ha", "value": "3+ (3+ represents 100% kill)"}, {"measurement": "damage to plants, Jm", "setting": "Japanese millet [11]; 1 kg/ha", "value": "3+ (3+ represents 100% kill)"}, {"measurement": "damage to plants, Jm", "setting": "Japanese millet [11]; 5 kg/ha", "value": "3+ (3+ represents 100% kill)"}, {"measurement": "damage to plants, Sf", "setting": "Sunflower; 0.5 kg/ha", "value": "0 (0 represents from 0 to 25% damage)"}, {"measurement": "damage to plants, Sf", "setting": "Sunflower; 1 kg/ha", "value": "0 (0 represents from 0 to 25% damage)"}, {"measurement": "damage to plants, Sf", "setting": "Sunflower; 5 kg/ha", "value": "0 (0 represents from 0 to 25% damage)"}, {"measurement": "damage to plants, Ip", "setting": "Ipomea [12]; 0.5 kg/ha", "value": "0 (0 represents from 0 to 25% damage)"}, {"measurement": "damage to plants, Ip", "setting": "Ipomea [12]; 1 kg/ha", "value": "0 (0 represents from 0 to 25% damage)"}, {"measurement": "damage to plants, Ip", "setting": "Ipomea [12]; 5 kg/ha", "value": "0 (0 represents from 0 to 25% damage)"}, {"measurement": "damage to plants, Ot", "setting": "Wild Oats [13]; 0.5 kg/ha", "value": "3 (3 represents 75 to 99% kill)"}, {"measurement": "damage to plants, Ot", "setting": "Wild Oats [13]; 1 kg/ha", "value": "3+ (3+ represents 100% kill)"}, {"measurement": "damage to plants, Ot", "setting": "Wild Oats [13]; 5 kg/ha", "value": "3+ (3+ represents 100% kill)"}, {"measurement": "damage to plants, Wh", "setting": "Wheat [14]; 1 kg/ha", "value": "3 (3 represents 75 to 99% kill)"}, {"measurement": "damage to plants, Wh", "setting": "Wheat [14]; 5 kg/ha", "value": "3+ (3+ represents 100% kill)"}, {"measurement": "damage to test plants, Dg", "setting": "Digitaria sanguinalis", "value": 5}, {"measurement": "damage to test plants, St", "setting": "Setaria viridis", "value": 8}, {"measurement": "damage to test plants, Sh", "setting": "Sorghum halepense [4]", "value": "9 (9 is 90 to 100% kill)"}, {"measurement": "damage to test plants, Ec", "setting": "Echinochloa crus-galli", "value": 5}, {"measurement": "damage to test plants, Ct", "setting": "Cotton (Deltapine)", "value": "0 (0 is 0 to 10%)"}, {"measurement": "damage to test plants, Sy", "setting": "Soyabean (Amsoy)", "value": "0 (0 is 0 to 10%)"}]}
